Kd data for one compound are collected here from paper PMC8262883, “Human Gut Faecalibacterium prausnitzii Deploys a Highly Efficient Conserved System To Cross-Feed on β-Mannan-Derived Oligosaccharides” (mBio, 2021).

For this assay, the target named is T1, FpMOBP (Faecalibacterium prausnitzii, UniProt D4KAW3).
T1 construct: gene FPR_17280; mature form without predicted signal peptide, C-terminal His6 tag (pNIC-CH), E. coli BL21 STAR; 48 kDa
T1 sequence (D4KAW3 26-470): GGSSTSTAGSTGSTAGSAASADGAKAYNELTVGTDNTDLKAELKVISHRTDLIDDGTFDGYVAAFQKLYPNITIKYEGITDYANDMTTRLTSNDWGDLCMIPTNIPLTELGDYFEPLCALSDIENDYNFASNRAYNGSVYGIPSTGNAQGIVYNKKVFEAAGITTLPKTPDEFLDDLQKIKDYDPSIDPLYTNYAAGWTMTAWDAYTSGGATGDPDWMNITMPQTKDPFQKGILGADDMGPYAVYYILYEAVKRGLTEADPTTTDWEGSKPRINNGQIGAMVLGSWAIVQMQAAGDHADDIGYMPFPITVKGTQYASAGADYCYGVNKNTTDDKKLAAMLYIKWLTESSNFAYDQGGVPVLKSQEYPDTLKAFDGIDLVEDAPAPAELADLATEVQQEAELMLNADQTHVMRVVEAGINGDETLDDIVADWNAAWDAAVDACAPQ
Kind of assay: isothermal titration calorimetry. It counts as binding. Conditions: 25°C, 50 mM sodium phosphate pH 6.5; n = 0.8.

`OC[C@H]1O[C@@H](O[C@H]2[C@H](O)[C@H](O)[C@H](O[C@H]3[C@H](O)[C@H](O)[C@H](O[C@H]4[C@H](O)[C@H](O)[C@H](O[C@H]5[C@H](O)[C@H](O)[C@H](O[C@H]6[C@H](O)[C@H](O)C(O)O[C@@H]6CO)O[C@@H]5CO)O[C@@H]4CO)O[C@@H]3CO)O[C@@H]2CO)[C@@H](O)[C@@H](O)[C@@H]1O` (stereo partly shown) [M6, mannohexaose]: the Kd was found to be 189 ± 1.4 µM.

For orientation: Kd means the free concentration of one partner at which half of the binding sites on the other are occupied at equilibrium, for simple one-to-one binding.
